pKi: −log10 of the molar value.
Experiments:
[1] = target: T1, 5-hydroxytryptamine receptor 1A (Homo sapiens, UniProt P08908); assay: Binding affinity to 5-HT1A (unknown origin)
T1 sequence (P08908 whole entry): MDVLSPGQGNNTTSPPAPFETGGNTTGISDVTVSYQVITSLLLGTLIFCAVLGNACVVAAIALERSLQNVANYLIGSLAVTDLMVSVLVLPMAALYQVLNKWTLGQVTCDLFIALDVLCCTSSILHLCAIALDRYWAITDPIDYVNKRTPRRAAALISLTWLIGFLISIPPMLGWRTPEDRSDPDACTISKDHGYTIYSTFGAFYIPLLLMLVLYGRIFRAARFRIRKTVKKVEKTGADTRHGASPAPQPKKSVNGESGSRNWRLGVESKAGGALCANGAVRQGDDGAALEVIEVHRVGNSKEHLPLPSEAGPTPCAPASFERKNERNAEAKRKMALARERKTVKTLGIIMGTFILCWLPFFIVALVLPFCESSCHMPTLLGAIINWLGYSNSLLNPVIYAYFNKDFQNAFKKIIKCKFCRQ

[2] = target: T2, 5-hydroxytryptamine receptor 2A (Homo sapiens, UniProt P28223); assay: Binding affinity to 5-HT2A (unknown origin)
[3] = target: T3, 5-hydroxytryptamine receptor 1A (Rattus norvegicus, UniProt P19327); assay: Displacement of [3H]8-OH-DPAT from 5-HT1A receptor in Rattus norvegicus (rat) hippocampus; conditions: for Ki: read-out: pKi (converted); for pKi: read-out: Ki
T3 sequence (P19327 whole entry): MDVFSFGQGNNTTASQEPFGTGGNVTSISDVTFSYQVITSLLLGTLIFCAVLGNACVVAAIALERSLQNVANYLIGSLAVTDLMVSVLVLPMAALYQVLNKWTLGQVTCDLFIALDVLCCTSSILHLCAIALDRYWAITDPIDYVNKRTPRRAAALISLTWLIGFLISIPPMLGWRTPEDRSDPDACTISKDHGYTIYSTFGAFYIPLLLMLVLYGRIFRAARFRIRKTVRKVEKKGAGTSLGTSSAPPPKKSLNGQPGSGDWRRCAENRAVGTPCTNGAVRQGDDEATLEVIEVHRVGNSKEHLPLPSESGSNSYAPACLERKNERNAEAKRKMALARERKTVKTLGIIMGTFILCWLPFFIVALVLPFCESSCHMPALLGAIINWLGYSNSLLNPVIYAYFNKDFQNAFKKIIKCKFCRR

[4] = target: 5-hydroxytryptamine receptor 2A (Rattus norvegicus, UniProt P14842); assay: Displacement of [3H]Ketanserin from 5-HT2A receptor in rat cortex
[5] = Selectivity index, ratio of Ki for rat 5-HT1A to Ki for 5-HT2A (unknown origin)
[6] = target: T2, 5-hydroxytryptamine receptor 2A; assay: Displacement of [3H]Ketanserin from 5-HT2A receptor (unknown origin)

Sequence of 5-hydroxytryptamine receptor 2A (Rattus norvegicus, UniProt P14842) (P14842 whole entry): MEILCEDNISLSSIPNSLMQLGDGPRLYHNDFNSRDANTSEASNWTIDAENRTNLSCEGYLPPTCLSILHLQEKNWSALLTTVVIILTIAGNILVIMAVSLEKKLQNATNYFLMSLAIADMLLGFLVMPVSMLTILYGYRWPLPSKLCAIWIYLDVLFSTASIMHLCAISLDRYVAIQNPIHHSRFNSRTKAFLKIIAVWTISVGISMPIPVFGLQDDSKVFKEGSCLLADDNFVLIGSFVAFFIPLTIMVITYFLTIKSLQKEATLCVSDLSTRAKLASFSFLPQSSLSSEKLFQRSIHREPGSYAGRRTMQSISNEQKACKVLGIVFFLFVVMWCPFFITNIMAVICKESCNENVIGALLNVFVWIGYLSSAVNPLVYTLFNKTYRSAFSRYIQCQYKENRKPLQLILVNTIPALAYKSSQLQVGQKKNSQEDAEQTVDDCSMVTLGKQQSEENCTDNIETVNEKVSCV
T2 sequence (P28223 whole entry): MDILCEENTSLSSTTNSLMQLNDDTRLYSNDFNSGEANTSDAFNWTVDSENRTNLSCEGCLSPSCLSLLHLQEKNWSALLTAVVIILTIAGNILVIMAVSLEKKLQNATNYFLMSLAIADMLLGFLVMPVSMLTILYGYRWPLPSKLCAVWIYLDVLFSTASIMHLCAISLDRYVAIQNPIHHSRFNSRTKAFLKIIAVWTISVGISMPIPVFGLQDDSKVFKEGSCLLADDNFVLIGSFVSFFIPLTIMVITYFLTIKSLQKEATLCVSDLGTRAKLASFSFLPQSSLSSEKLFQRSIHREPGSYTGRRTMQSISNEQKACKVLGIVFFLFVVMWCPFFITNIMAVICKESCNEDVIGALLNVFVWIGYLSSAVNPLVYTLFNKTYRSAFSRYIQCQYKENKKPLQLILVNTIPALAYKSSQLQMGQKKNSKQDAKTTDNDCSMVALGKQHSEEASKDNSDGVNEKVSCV

Row | Structure (SMILES) | pKi [1] | pKi [2] | Ki [3] [µM] | pKi [4] | further results
1 | Cn1c(=O)c2c(nc3n(CCCN4CCN(c5ccccc5)CC4)c(=O)ccn23)n(C)c1=O | 7.60 | 5.33 | – | – | –
2 | Cn1c(=O)c2c(nc3n2CCCCN3CCCN2CCN(c3cccc(Cl)c3)CC2)n(C)c1=O | 7.57 | 6.48 | – | – | –
3 | CC(c1ccccc1)n1c(NCCCN2CCN(c3ccccc3)CC2)nc2c1c(=O)n(C)c(=O)n2C (centres undefined) | – | – | 1.01 | 6.94 | –
4 | Cn1c(=O)c2c(nc3n2CCCN3CCCN2CCN(c3ccccc3)CC2)n(C)c1=O | 7.80 | 6.38 | – | – | –
5 | CCCCn1c(NCCCN2CCN(c3ccccc3)CC2)nc2c1c(=O)n(C)c(=O)n2C | 7.00 | 6.21 | – | – | –
6 | COc1ccccc1N1CCN(CCCNc2nc3c(c(=O)n(C)c(=O)n3C)n2CCCc2ccccc2)CC1 | – | – | 0.008 | 6.52 | –
7 | Cn1c(=O)c2c(nc3n2CCCC(=O)N3CCCN2CCN(c3cccc(Cl)c3)CC2)n(C)c1=O | 7.22 | 6.45 | – | – | –
8 | Cn1cnc2c1c(=O)n(CCCN1CCN(C(c3ccccc3)c3ccccc3)CC1)c(=O)n2C | – | – | – | – | Ratio Ki [5]: 33.9; pKi [6]: 7.23; pKi [3]: 5.70
9 | Cn1c(=O)c2c(nc3n2CCC(=O)N3CCCN2CCN(c3ncccn3)CC2)n(C)c1=O | 7.38 | 4.55 | – | – | –
10 | Cn1c(=O)c2c(nc3n2CCCN3CCCCN2CCN(c3ccccc3)CC2)n(C)c1=O | 8.68 | 6.61 | – | – | –
11 | COc1ccccc1N1CCN(CCCN2CCCCn3c2nc2c3c(=O)n(C)c(=O)n2C)CC1 | 7.76 | 6.25 | – | – | –
12 | COc1ccccc1N1CCN(CCCn2c(=O)ccn3c4c(=O)n(C)c(=O)n(C)c4nc23)CC1 | 7.98 | 5.41 | – | – | –
13 | Cn1c(=O)c2c(nc3n2CCCN3CCCN2CCN(c3ncccn3)CC2)n(C)c1=O | 7.44 | 5.09 | – | – | –
14 | Cn1c(=O)c2c(nc3n2CCC(=O)N3CCCN2CCN(c3cccc(Cl)c3)CC2)n(C)c1=O | 7.37 | 6.74 | – | – | –
15 | Cn1c(=O)c2c(nc3n2CCCC(=O)N3CCCN2CCN(c3ncccn3)CC2)n(C)c1=O | 6.32 | 4.41 | – | – | –
16 | Cn1c(=O)c2c(nc(NCCCN3CCN(C(c4ccccc4)c4ccccc4)CC3)n2C)n(C)c1=O | – | – | – | – | Ratio Ki [5]: 5.1; pKi [6]: 6.51; pKi [3]: 5.80

Row | Structure (SMILES) | pKi [1] | pKi [2] | Ki [3] [µM] | pKi [4] | further results
17 | Cn1c(=O)c2c(nc(N3CCN(C(c4ccccc4)c4ccccc4)CC3)n2C)n(C)c1=O | – | – | – | – | Ratio Ki [5]: 0.5; pKi [6]: 4.65; pKi [3]: 4.97
18 | Cn1c(=O)c2c(nc(NCCCN3CCN(c4ccccc4)CC3)n2CCCc2ccccc2)n(C)c1=O | – | – | 0.05 | 6.35 | –
19 | Cn1c(=O)c2c(nc3n(CCCN4CCN(c5cccc(Cl)c5)CC4)c(=O)ccn23)n(C)c1=O | 7.48 | 5.97 | – | – | –
20 | Cn1c(=O)c2c(nc(NCCCN3CCN(c4cccc(Cl)c4)CC3)n2CCCc2ccccc2)n(C)c1=O | – | – | 0.01 | 6.46 | –
21 | Cn1c(=O)c2c(nc3n2CCCCN3CCCN2CCN(c3ccccc3)CC2)n(C)c1=O | 7.51 | 6.59 | – | – | –
22 | Cn1c(=O)c2c(nc(NCCCN3CCN(c4ccccc4)CC3)n2C)n(C)c1=O | 6.42 | 6.71 | – | – | –
23 | Cn1c(=O)c2c(nc3n(CCCCN4CCN(c5ccccc5)CC4)c(=O)ccn23)n(C)c1=O | – | – | 0.0215 | 5.70 | –
24 | Cn1c(=O)c2c(nc3n2CCCN3CCCN2CCN(c3cccc(Cl)c3)CC2)n(C)c1=O | 7.59 | 6.90 | – | – | –
25 | CCOC(=O)Cn1c(NCCCN2CCN(c3ccccc3)CC2)nc2c1c(=O)n(C)c(=O)n2C | 6.23 | 6.00 | 0.22 | 6.35 | –
26 | COc1ccccc1N1CCN(CCCCn2c(=O)ccn3c4c(=O)n(C)c(=O)n(C)c4nc23)CC1 | – | – | 0.0005 | 5.97 | –
27 | COc1ccccc1N1CCN(CCCN2C(=O)CCn3c2nc2c3c(=O)n(C)c(=O)n2C)CC1 | 7.67 | 5.38 | – | – | –
28 | COc1ccccc1N1CCN(CCCNc2nc3c(c(=O)n(C)c(=O)n3C)n2Cc2ccccc2)CC1 | – | – | 0.048 | 6.26 | –
29 | Cn1c(=O)c2c(nc(NCCCN3CCN(c4cccc(Cl)c4)CC3)n2CCc2ccccc2)n(C)c1=O | – | – | 0.21 | 6.92 | –
30 | COc1ccccc1N1CCN(CCCN2C(=O)CCCn3c2nc2c3c(=O)n(C)c(=O)n2C)CC1 | 6.78 | 5.30 | – | – | –
31 | COc1ccccc1N1CCN(CCCN2CCCn3c2nc2c3c(=O)n(C)c(=O)n2C)CC1 | 8.55 | 6.31 | – | – | –
32 | Cn1c(=O)c2c(nc3n(CCCCN4CCN(c5cccc(Cl)c5)CC4)c(=O)ccn23)n(C)c1=O | – | – | 0.00879 | 6.82 | –

Source: ChEMBL document CHEMBL3046932, “Synthesis, 5-HT1A and 5-HT2A receptor affinity and QSAR study of 1-benzhydryl-piperazine derivatives with xanthine moiety at N4” (Med Chem Res, 2012)
